Usually IC50 stands for the concentration needed to halve the response being measured.

This note sets out measurements from patent publication US10821115B2, “Compounds that inhibit Mcl-1 protein” (priority 2017, dated 2020).

SMILES strings stand for the structures. Read-outs that look alike come from different tables or passages of the source.

Assay [1] concerns human multiple myeloma cell line, OPM-2. Nature of the assay: Cell viability assay (OPM-2 10 FBS), CellTiter-Glo. The format is cell-based. The essentials:
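OPM-2 cells at 3000 cells/well in RPMI 1640 with 10% FBS were exposed to serially diluted compounds for 16 h at 37 °C, 5% CO2.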

Assay [2] concerns the target recombinant human Mcl-1 (residues 171-327) / Bim interaction (Homo sapiens (Human), UniProt Q07820). The assay is described as follows: biochemical. To be noted: read-out: Mcl-1 HTRF IC50. The format is binding.
Where [3] appears, read: Homo sapiens, OPM-2, 16 h, read-out: OPM-2 10% FBS IC50 IP, OPM-2 cells, 10% FBS, 16 h, CellTiter-Glo.
The mark [4] stands for this setting: TR-FRET, Mcl-1(171-327) / biotin-Bim (51-76).
Where [5] appears, read: read-out: OPM-2 10% FBS IC50 IP, OPM-2 cells, 10% FBS, 16 h, CellTiter-Glo.
[6] abbreviates: Homo sapiens, OPM-2, 16 h, read-out: OPM-2 10% FBS IC50 IP, OPM-2 cells, 10% FBS, 16 h incubation.
Where [7] appears, read: 0.1 nM Mcl-1(171-327), 0.05 nM biotin-Bim (51-76).

Sequence of recombinant human Mcl-1 (residues 171-327) / Bim interaction (Q07820 171-327): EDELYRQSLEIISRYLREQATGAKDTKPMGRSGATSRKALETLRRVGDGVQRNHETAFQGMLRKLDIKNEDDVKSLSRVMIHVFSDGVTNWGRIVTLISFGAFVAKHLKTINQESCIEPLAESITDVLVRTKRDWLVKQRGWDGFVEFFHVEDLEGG

With `Cc1ccnc(C[C@]2(O)/C=C/C[C@H](C)[C@@H](C)S(=O)(=O)NC(=O)c3ccc4c(c3)N(C[C@@H]3CC[C@H]32)C[C@@]2(CCCc3cc(Cl)ccc32)CO4)c1` [Example 100533, (1S,3′R,6′R,7′S,8′E,11′S,12′R)-6-chloro-7′-hydroxy-11′,12′-dimethyl-7′-((4-methyl-2-pyridinyl)methyl)-3,4-dihydro-2H,15′H-spiro[naphthalene-1,22′-[20]oxa[13]thia[1,14]diazatetracyclo [14.7.2.0~3,6~.0~19,24~]pentacosa[8,16,18,24]tetraen]-15′-one 13′,13′-dioxide], the IC50 in assay [1] (setting [3]) stood at 3990 nM; in assay [2] (setting [4]), 8.56 nM.

`CO[C@@]1(CC(=O)N2CCN(C)C[C@H]2C)/C=C/C[C@H](C)[C@@H](C)S(=O)(=O)NC(=O)c2ccc3c(c2)N(C[C@@H]2CC[C@H]21)C[C@@]1(CCCc2cc(Cl)ccc21)CO3` (single isomer, unassigned) [Example 100479]: the IC50 in assay [1] (setting [5]) was found to be 332 nM; in assay [2] (setting [4]) it was 0.758 nM.

`COc1cccc([C@]2(O)/C=C/C[C@H](C)[C@@H](C)S(=O)(=O)NC(=O)c3ccc4c(c3)N(C[C@@H]3CC[C@H]32)C[C@@]2(CCCc3cc(Cl)ccc32)CO4)n1` [Example 100191, (1S,3′R,6′R,7′S,8′E,11′S,12′R)-6-chloro-7′-hydroxy-7′-(6-methoxy-2-pyridinyl)-11′,12′-dimethyl-3,4-dihydro-2H,15′H-spiro[naphthalene-1,22′-[20]oxa[13]thia[1,14]diazatetracyclo [14.7.2.0~3,6~.0~19,24~]pentacosa[8,16,18,24]tetraen]-15′-one 13′,13′-dioxide]: the IC50 was 557 nM in assay [1] (setting [3]) and 1.6 nM in assay [2] (setting [4]).

Turning to `CO[C@@]1(CN2CCC23COC3)/C=C/C[C@H](C)[C@@H](C)S(=O)(=O)NC(=O)c2ccc3c(c2)N(C[C@@H]2CC[C@H]21)C[C@@]1(CCCc2cc(Cl)ccc21)CO3` [Example 208, (1S,3′R,6′R,7′S,8′E,11′S,12′R)-6-chloro-7′-methoxy-11′,12′-dimethyl-7′-(6-oxa-1-azaspiro[3.3]hept-1-ylmethyl)-3,4-dihydro-2H,15′H-spiro[naphthalene-1,22′-[20]oxa[13]thia[1,14]diazatetracyclo [14.7.2.0~3,6~.0~19,24~]pentacosa[8,16,18,24]tetraen]-15′-one 13′,13′-dioxide], the IC50 in assay [1] (setting [6]) came out at 368 nM; in assay [2] (setting [7]), 0.099 nM.

As to `COCC[C@@H]1[C@@H](C)C/C=C/[C@@](C=O)(OC)[C@@H]2CC[C@H]2CN2C[C@@]3(CCCc4cc(Cl)ccc43)COc3ccc(cc32)C(=O)NS1(=O)=O` [Example 100571, (1S,3′R,6′R,7′R,8′E,11′S,12′R)-6-chloro-7′-methoxy-12′-(2-methoxyethyl)-11′-methyl-15′-oxo-3,4-dihydro-2H-spiro[naphthalene-1,22′-[20]oxa[13]thia[1,14]diazatetracyclo [14.7.2.0~3,6~.0~19,24~]pentacosa[8,16,18,24]tetraene]-7′-carbaldehyde 13′,13′-dioxide], the IC50 in assay [1] (setting [3]) is 922 nM; in assay [2] (setting [4]), 0.076 nM.

With `CO[C@@]1(C2SCCCS2)/C=C/C[C@H](C)[C@@H](C)S(=O)(=O)NC(=O)c2ccc3c(c2)N(C[C@@H]2CC[C@H]21)C[C@@]1(CCCc2cc(Cl)ccc21)CO3` [Example 100261, (1S,3′R,6′R,7′S,8′E,11′S,12′R)-6-chloro-7′-(1,3-dithian-2-yl)-7′-methoxy-11′,12′-dimethyl-3,4-dihydro-2H,15′H-spiro[naphthalene-1,22′-[20]oxa[13]thia[1,14]diazatetracyclo [14.7.2.0~3,6~.0~19,24~]pentacosa[8,16,18,24]tetraen]-15′-one 13′,13′-dioxide], the values for the IC50 in assay [1] (setting [3]) and in assay [2] (setting [4]) were 533 nM and 1.22 nM, respectively.

As for `COCC[C@@H]1[C@@H](C)C/C=C/[C@@](O)(C2SCCCS2)[C@@H]2CC[C@H]2CN2C[C@@]3(CCCc4cc(Cl)ccc43)COc3ccc(cc32)C(=O)NS1(=O)=O` [Example 100513, (1S,3′R,6′R,7′S,8′E,11′S,12′R)-6-chloro-7′-(1,3-dithian-2-yl)-7′-hydroxy-12′-(2-methoxyethyl)-11′-methyl-3,4-dihydro-2H,15′H-spiro[naphthalene-1,22′-[20]oxa[13]thia[1,14]diazatetracyclo [14.7.2.0~3,6~.0~19,24~]pentacosa[8,16,18,24]tetraen]-15′-one 13′,13′-dioxide], the results for the IC50 in assay [1] (setting [3]) and in assay [2] (setting [4]) were 288 nM and 0.071 nM, respectively.

On to `CO[C@@]1(CC(=O)N2CC[C@@H](N(C)C)C2)/C=C/C[C@H](C)[C@@H](C)S(=O)(=O)NC(=O)c2ccc3c(c2)N(C[C@@H]2CC[C@H]21)C[C@@]1(CCCc2cc(Cl)ccc21)CO3` (single isomer, unassigned) [Example 100318], for which the results for the IC50 in assay [1] (setting [3]) and in assay [2] (setting [4]) were 114 nM and 0.095 nM, respectively.

In the case of `CO[C@@]1(CN2CCN3CCN(C(C)C)C[C@@H]3C2)/C=C/C[C@H](C)[C@@H](C)S(=O)(=O)NC(=O)c2ccc3c(c2)N(C[C@@H]2CC[C@H]21)C[C@@]1(CCCc2cc(Cl)ccc21)CO3` (single isomer, unassigned) [Example 241], the IC50 amounted to 137 nM in assay [1] (read-out: OPM-2 10% FBS IC50 IP, OPM-2 cells, 10% FBS, 16 h incubation) and 0.15 nM in assay [2] (setting [7]).

`CO[C@@]1(Cc2nc(CN(C)C)c(C)o2)/C=C/C[C@H](C)[C@@H](C)S(=O)(=O)NC(=O)c2ccc3c(c2)N(C[C@@H]2CC[C@H]21)C[C@@]1(CCCc2cc(Cl)ccc21)CO3` [Example 100586, (1S,3′R,6′R,7′S,8′E,11′S,12′R)-6-chloro-7′-((4-((dimethylamino)methyl)-5-methyl-1,3-oxazol-2-yl)methyl)-7′-methoxy-11′,12′-dimethyl-3,4-dihydro-2H,15′H-spiro[naphthalene-1,22′-[20]oxa[13]thia[1,14]diazatetracyclo [14.7.2.0~3,6~.0~19,24~]pentacosa[8,16,18,24]tetraen]-15′-one 13′,13′-dioxide]: the values for the IC50 in assay [1] (setting [3]) and in assay [2] (setting [4]) were 453 nM and 0.074 nM, respectively.

In the case of `COC(=O)N1CCN(C[C@]2(OC)/C=C/C[C@H](C)[C@@H](C)S(=O)(=O)NC(=O)c3ccc4c(c3)N(C[C@@H]3CC[C@H]32)C[C@@]2(CCCc3cc(Cl)ccc32)CO4)CC1` [Example 266, methyl 4-(((1S,3′R,6′R,7′S,8′E,11′S, 12′R)-6-chloro-7′-methoxy-11′,12′-dimethyl-13′,13′-dioxido-15′-oxo-3,4-dihydro-2H-spiro[naphthalene-1,22′-[20]oxa[13]thia[1,14]diazatetracyclo [14.7.2.0~3,6~.0~19,24~]pentacosa[8,16,18,24]tetraen]-7′-yl)methyl)-1-piperazinecarboxylate], the IC50 in assay [1] (setting [6]) worked out at 723 nM; in assay [2] (setting [7]), 0.282 nM.

As to `C=CCC[C@@]1(O)/C=C/C[C@H](C)[C@@H](C)S(=O)(=O)NC(=O)c2ccc3c(c2)N(C[C@@H]2CC[C@H]21)C[C@@]1(CCCc2cc(Cl)ccc21)CO3` [Example 100157, (1S,3′R,6′R,7′R,8′E,11′S,12′R)-7′-(3-buten-1-yl)-6-chloro-7′-hydroxy-11′,12′-dimethyl-3,4-dihydro-2H,15′H-spiro[naphthalene-1,22′-[20]oxa[13]thia[1,14]diazatetracyclo [14.7.2.0~3,6~.0~19,24~]pentacosa[8,16,18,24]tetraen]-15′-one 13′,13′-dioxide], the IC50 in assay [1] (setting [5]) is 3210 nM; in assay [2] (setting [4]) it was 4.81 nM.

As to `C[C@@H]1[C@@H](C)C/C=C/[C@](O)(c2ccc(F)cn2)[C@@H]2CC[C@H]2CN2C[C@@]3(CCCc4cc(Cl)ccc43)COc3ccc(cc32)C(=O)NS1(=O)=O` [Example 100403, (1S,3′R,6′R,7′R,8′E,11′S,12′R)-6-chloro-7′-(5-fluoro-2-pyridinyl)-7′-hydroxy-11′,12′-dimethyl-3,4-dihydro-2H,15′H-spiro[naphthalene-1,22′-[20]oxa[13]thia[1,14]diazatetracyclo [14.7.2.0~3,6~.0~19,24~]pentacosa[8,16,18,24]tetraen]-15′-one 13′,13′-dioxide], the IC50 in assay [1] (setting [3]) came to 390 nM; in assay [2] (setting [4]), 0.226 nM.

Consider `CO[C@@]1(C)/C=C/C[C@H](C)[C@@H](C)S(=O)(=O)NC(=O)c2ccc3c(c2)N(C[C@@H]2CC[C@H]21)C[C@@]1(CCCc2cc(Cl)ccc21)CO3` [Example 100014, (1S,3′R,6′R,7′S,8′E, 11′S, 12′R)-6-chloro-7′-methoxy-7′,11′,12′-trimethyl-3,4-dihydro-2H,15′H-spiro[naphthalene-1,22′-[20]oxa[13]thia[1,14]diazatetracyclo[14.7.2.0-3,6˜.0˜19,24˜]pentacosa[8,16,18,24]tetraen]-15′-one 13′,13′-dioxide], for which the half-inhibitory concentration (IC50) worked out at 330 nM in assay [1] (setting [3]) and 0.228 nM in assay [2].

With `C[C@@H]1[C@@H](C)C/C=C/[C@@](O)([C@@H]2CCN(C)C2=O)[C@@H]2CC[C@H]2CN2C[C@@]3(CCCc4cc(Cl)ccc43)COc3ccc(cc32)C(=O)NS1(=O)=O` [Example 100137, (1S,3′R,6′R,7′S,8′E,11′S,12′R)-6-chloro-7′-hydroxy-11′,12′-dimethyl-7′-((3S)-1-methyl-2-oxo-3-pyrrolidinyl)-3,4-dihydro-2H,15′H-spiro[naphthalene-1,22′-[20]oxa[13]thia[1,14]diazatetracyclo [14.7.2.0~3,6~.0~19,24~]pentacosa[8,16,18,24]tetraen]-15′-one 13′,13′-dioxide], the IC50 was 2820 nM in assay [1] (setting [5]) and 0.365 nM in assay [2] (setting [4]).
